Data: patent US8003668B2, “Amino-substituted 8-N-benzimidazoles and methods for their use in blood sugar disorders” (Sanofi-Aventis, priority 2005, dated 2011)

Molecular target: T1, DPP-IV from porcine kidneys (Sus scrofa, UniProt P22411)
T1 construct: DPP-IV from porcine kidneys (Sigma, Munich); purchased Sigma, Munich; host or cells: porcine kidney (tissue-derived enzyme)
Assay: Measurement of the DPP-IV activity (fluorimetric, H-Ala-Pro-AFC substrate)
Assay type: biochemical
Conditions: inhibitor at 30 μm; H-Ala-Pro-AFC 15 μm; DPP-IV 1 mU/ml; Tris/HCl pH 7.4; room temperature
Procedure: The efficacy of the compounds was tested as follows: • Measurement of the DPP-IV Activity: • Material: • DPP-IV from porcine kidneys (Sigma, Munich) • H-Ala-Pro-AFC (Bachem, Weil am Rhein) • Test conditions: • DPP-IV (1 mU/ml, end concentration) • H-Ala-Pro-AFC (15 μm end concentration) in Tris/HCl (40 mM, pH 7.4), total volume 0.2 ml
The reaction was performed at room temperature for different periods (typically 10 minutes) and stopped at the end of the reaction by adding 20 μl of ZnCl2 (1 M). The conversion of H-Ala-Pro-AFC was determined fluorimetrically by measuring the emission at 535 nm on excitation at 405 nm. In the case of addition of inhibitors, the buffer volume added was adjusted such that a total volume of the test mixture of 200 μl was maintained.
% inhibition at a fixed concentration was calculated as follows: (1−enzyme activityinhibited reaction/enzyme activityuninhibited reaction)×100
IC50 values for inhibitors were determined by varying the inhibitor concentrations at the given substrate concentration of 15 μM. Ki and Km values were determined by corresponding variation of substrate and inhibitor concentration as described (Dixon, M. and Webb, E.C.(1979) Enzymes, third edition, pp. 47-206, Academic Press). […]

T1 sequence (P22411 whole entry): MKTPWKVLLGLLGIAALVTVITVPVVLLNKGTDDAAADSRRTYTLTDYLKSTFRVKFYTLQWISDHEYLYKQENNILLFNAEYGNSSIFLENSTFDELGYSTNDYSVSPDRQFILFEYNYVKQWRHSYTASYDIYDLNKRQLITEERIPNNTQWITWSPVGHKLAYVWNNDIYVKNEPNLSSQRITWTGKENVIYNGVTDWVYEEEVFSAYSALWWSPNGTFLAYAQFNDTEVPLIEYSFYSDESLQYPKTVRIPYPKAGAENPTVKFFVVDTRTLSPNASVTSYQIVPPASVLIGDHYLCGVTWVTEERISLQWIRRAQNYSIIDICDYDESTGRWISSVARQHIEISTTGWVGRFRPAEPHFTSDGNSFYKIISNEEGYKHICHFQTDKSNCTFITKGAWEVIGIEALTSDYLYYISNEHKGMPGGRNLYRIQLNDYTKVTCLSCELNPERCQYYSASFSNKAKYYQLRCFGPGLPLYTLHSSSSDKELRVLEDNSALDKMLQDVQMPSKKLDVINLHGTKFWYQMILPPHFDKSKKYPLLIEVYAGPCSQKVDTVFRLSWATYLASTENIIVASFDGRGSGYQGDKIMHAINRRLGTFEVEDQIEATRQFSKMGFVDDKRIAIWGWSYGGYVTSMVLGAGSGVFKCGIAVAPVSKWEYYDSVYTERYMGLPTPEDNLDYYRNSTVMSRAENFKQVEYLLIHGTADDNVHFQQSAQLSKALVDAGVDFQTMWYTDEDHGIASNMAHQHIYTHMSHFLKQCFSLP

CC(C)=CCn1c(N2CCC[C@@H](N)C2)nc2ccc(NS(=O)(=O)c3ccccc3)cc21.O=C(O)C(F)(F)F [Example 1, R-N-[2-(3-R-Aminopiperidin-1-yl)-1-(3-methylbut-2-enyl)-1H-benzimidazol-6-yl]-benzenesulfonamide trifluoroacetic acid salt]
% inhibition at 30 μm: 56%
